Article PMC12092823 (Scientific Reports, 2025)

Experiments:
α-glucosidase [1] = experiment: In vitro α-glucosidase inhibition assay; format: biochemical, yeast; settings: for anti-α-glucosidase activity in words: in comparison to acarbose or compound 14b; for folds more active than acarbose against α-glucosidase: versus acarbose
α-glucosidase [2] = experiment: Kinetic study; format: biochemical, yeast; settings: Lineweaver–Burk plots

Cc1cc([N+](=O)[O-])ccc1NC(=O)Cn1cc(CNC(=O)c2cc3c([nH]c4ccccc43)c(-c3ccc(Cl)cc3)n2)nn1 [14 L, 1-(4-chlorophenyl)-N-((1-(2-((2-methyl-4-nitrophenyl)amino)-2-oxoethyl)-1 H-1,2,3-triazol-4-yl)methyl)-9 H-pyrido[3,4-b]indole-3-carboxamide]
anti-α-glucosidase activity in words (α-glucosidase [1]): good

O=C(Cn1cc(CNC(=O)c2cc3c([nH]c4ccccc43)c(-c3ccc(Cl)cc3)n2)nn1)Nc1ccccc1F [14 m, 1-(4-chlorophenyl)-N-((1-(2-((2-fluorophenyl)amino)-2-oxoethyl)-1 H-1,2,3-triazol-4-yl)methyl)-9 H-pyrido[3,4-b]indole-3-carboxamide]
folds more active than acarbose against α-glucosidase (α-glucosidase [1]): around 5 folds

Cc1ccccc1NC(=O)Cn1cc(CNC(=O)c2cc3c([nH]c4ccccc43)c(-c3ccccc3)n2)nn1 [Compound 14b, N-((1-(2-oxo-2-(o-tolylamino)ethyl)-1 H-1,2,3-triazol-4-yl)methyl)-1-phenyl-9 H-pyrido[3,4-b]indole-3-carboxamide]
anti-α-glucosidase activity in words (α-glucosidase [1]): significant
effect of increasing inhibitor concentration on Km and Vmax (α-glucosidase [2]): decrease in Km and Vmax
type of α-glucosidase inhibition (α-glucosidase [2]): uncompetitive

Cc1cc([N+](=O)[O-])ccc1NC(=O)Cn1cc(CNC(=O)c2cc3c([nH]c4ccccc43)c(-c3ccccc3)n2)nn1 [Compound 14c, N-((1-(2-((2-methyl-4-nitrophenyl)amino)-2-oxoethyl)-1 H-1,2,3-triazol-4-yl)methyl)-1-phenyl-9 H-pyrido[3,4-b]indole-3-carboxamide]
decrease of anti-α-glucosidase activity relative to compound 14b (α-glucosidase [1]; versus compound 14b): 10 folds

COc1ccc(NC(=O)Cn2cc(CNC(=O)c3cc4c([nH]c5ccccc54)c(-c4ccccc4)n3)nn2)c([N+](=O)[O-])c1 [Compound 14e, N-((1-(2-((4-methoxy-2-nitrophenyl)amino)-2-oxoethyl)-1 H-1,2,3-triazol-4-yl)methyl)-1-phenyl-9 H-pyrido[3,4-b]indole-3-carboxamide]
anti-α-glucosidase activity in words (α-glucosidase [1]): moderate

COc1ccc(-c2nc(C(=O)NCc3cn(CC(=O)Nc4cccc(Cl)c4)nn3)cc3c2[nH]c2ccccc23)cc1 [Compound 14i, N-((1-(2-((3-chlorophenyl)amino)-2-oxoethyl)-1 H-1,2,3-triazol-4-yl)methyl)-1-(4-methoxyphenyl)-9 H-pyrido[3,4-b]indole-3-carboxamide]
anti-α-glucosidase activity in words (α-glucosidase [1]): significant inhibitor

O=C(Cn1cc(CNC(=O)c2cc3c([nH]c4ccccc43)c(-c3ccc(Cl)cc3)n2)nn1)Nc1ccccc1 [Compound 14j, 1-(4-chlorophenyl)-N-((1-(2-oxo-2-(phenylamino)ethyl)-1 H-1,2,3-triazol-4-yl)methyl)-9 H-pyrido[3,4-b]indole-3-carboxamide]
folds more active than acarbose against α-glucosidase (α-glucosidase [1]): around 5 folds

Cc1ccccc1NC(=O)Cn1cc(CNC(=O)c2cc3c([nH]c4ccccc43)c(-c3ccc(Cl)cc3)n2)nn1 [Compound 14k, 1-(4-chlorophenyl)-N-((1-(2-oxo-2-(o-tolylamino)ethyl)-1 H-1,2,3-triazol-4-yl)methyl)-9 H-pyrido[3,4-b]indole-3-carboxamide]
inhibitory activity diminished relative to compound 14 L (α-glucosidase [1]; versus compound 14 L): 3 folds

O=C(Cn1cc(CNC(=O)c2cc3c([nH]c4ccccc43)c(-c3ccc(Cl)cc3)n2)nn1)Nc1cccc(Cl)c1 [Compound 14n, 1-(4-chlorophenyl)-N-((1-(2-((3-chlorophenyl)amino)-2-oxoethyl)-1 H-1,2,3-triazol-4-yl)methyl)-9 H-pyrido[3,4-b]indole-3-carboxamide]
anti-α-glucosidase activity in words (α-glucosidase [1]): good
